Measured values reported in article PMC5587286, “Direct versus indirect actions of ghrelin on hypothalamic NPY neurons” (PLoS ONE, 2017).

How the values were obtained:
[1] = tested on: NPY-GFP neurons in hypothalamic slices; type: cell-based, mice
isolated SUR1-/- neurons = type: cell-based, mice
[2] = biological target: growth hormone secretagogue receptor (mouse (endogenous in NPY-GFP neurons)) (UniProt Q99P50)
Sequence of growth hormone secretagogue receptor (mouse (endogenous in NPY-GFP neurons)) (Q99P50 whole entry): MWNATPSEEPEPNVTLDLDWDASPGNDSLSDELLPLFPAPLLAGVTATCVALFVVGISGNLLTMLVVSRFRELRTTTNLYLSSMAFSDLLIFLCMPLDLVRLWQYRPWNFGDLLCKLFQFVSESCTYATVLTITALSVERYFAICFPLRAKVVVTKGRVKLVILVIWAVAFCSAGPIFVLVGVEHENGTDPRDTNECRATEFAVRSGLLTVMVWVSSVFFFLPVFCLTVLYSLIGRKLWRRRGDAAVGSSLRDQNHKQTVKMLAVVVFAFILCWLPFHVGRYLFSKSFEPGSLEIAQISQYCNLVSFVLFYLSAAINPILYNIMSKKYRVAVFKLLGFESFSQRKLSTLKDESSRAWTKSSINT

Molecule: NC1=N[C@H](O)[C@H]2[C@H]3O[C@]4(O)O[C@@H]([C@@H](O)[C@@]2(N1)[C@@H]4O)[C@]3(O)CO [TTX, tetrodotoxin]
- effect on ghrelin-induced changes in MP and IR [1]: reduces these ghrelin-induced changes in both MP and IR

Molecule: CCCCCCCC(=O)OC[C@H](NC(=O)[C@H](CO)NC(=O)CN)C(=O)N[C@@H](Cc1ccccc1)C(=O)N[C@@H](CC(C)C)C(=O)N[C@@H](CO)C(=O)N1CCC[C@H]1C(=O)N[C@@H](CCC(=O)O)C(=O)N[C@@H](Cc1c[nH]cn1)C(=O)N[C@@H](CCC(N)=O)C(=O)N[C@@H](CCCNC(=N)N)C(=O)N[C@H](C(=O)N[C@@H](CCC(N)=O)C(=O)N[C@@H](CCC(N)=O)C(=O)N[C@@H](CCCNC(=N)N)C(=O)N[C@@H](CCCCN)C(=O)N[C@@H](CCC(=O)O)C(=O)N[C@@H](CO)C(=O)N[C@@H](CCCCN)C(=O)N[C@@H](CCCCN)C(=O)N1CCC[C@H]1C(=O)N1CCC[C@H]1C(=O)N[C@@H](C)C(=O)N[C@@H](CCCCN)C(=O)N[C@@H](CC(C)C)C(=O)N[C@@H](CCC(N)=O)C(=O)N1CCC[C@H]1C(=O)N[C@@H](CCCNC(=N)N)C(=O)O)C(C)C [ghrelin]
- average IR decrease [1]: -108 ± 60 MΩ
- ghrelin-induced changes in MP and IR in the presence of TTX [1]: persistent, albeit diminished
- neurons depolarized due to decreases in IR [1]: ~ 70%
- neurons depolarized with increases in IR [1]: 7/22
- average ΔMP (MP +ghrelin minus MP w/o ghrelin) ([1]; SD): 3.6 ± 1.7 mV
- effect on [Ca2+]c (isolated SUR1-/- neurons): reversibly stimulated an increase in [Ca^2+]c in a subset of isolated SUR1^-/- neurons

Molecule: CC1=NS(=O)(=O)c2cc(Cl)ccc2N1 [diazoxide]
- stimulation of an increase in [Ca2+]c (isolated SUR1-/- neurons; diazoxide 200 μM, neurons from SUR1-/- mice): not

Molecule: Acylated ghrelin (peptide)
- EC50 of the rise of [Ca2+]c (fura-2) in isolated NPY-GFP neurons, from averages of the peak heights at each ghrelin concentration [2]: 0.11 nM

Molecule: COc1ccc(Cl)cc1C(=O)NCCc1ccc(S(=O)(=O)NC(=O)NC2CCCCC2)cc1 [glibenclamide]
- effect on ghrelin action (isolated SUR1-/- neurons; glibenclamide 1 μM, ghrelin 200 pM, neurons from SUR1-/- mice): no significant effect on ghrelin action
